Converted amounts (≈) assume the structure as drawn. The source made the active and inactive calls. The calls are words filed in the database; no cut-off is given here.
Tested on: Nephotettix cincticeps
Experiment: Insecticidal activity against Nephotettix cincticeps (green rice leafhopper) infested on rice leaf assessed as mortality after 5 days
Format: functional
Conditions: not given

Q: Which LC90 does the source give for `COP(=S)(OC)Oc1ccc([N+](=O)[O-])c(C)c1` [FENITROTHION] here?
A: The LC90 was 200 ppm.

Q: For `O=C(c1ccccc1)N1CCN(Cc2ccc(Cl)nc2)/C1=N/[N+](=O)[O-]`, which LC90 is on record?
A: The LC90 was 0.32 ppm.

Q: With `CCCCCN1CCN(Cc2ccc(Cl)nc2)/C1=N/[N+](=O)[O-]` as the molecule, how does the LC90 read?
A: The LC90 was 40 ppm.

Q: With `CCCN1CCN(Cc2ccc(Cl)nc2)/C1=N/[N+](=O)[O-]` as the molecule, how does the LC90 read?
A: Its LC90 is 0.32 ppm.

Q: Which LC90 does the source give for `O=[N+]([O-])/N=C1\NCCN1Cc1ccc(Cl)nc1` [IMIDACLOPRID] here?
A: Its LC90 is 0.32 ppm.

Q: Which LC90 does the source give for `CCCCN1CCN(Cc2ccc(Cl)nc2)/C1=N/[N+](=O)[O-]` here?
A: Its LC90 is 1.6 ppm.

Q: For `CCN1CCN(Cc2ccc(Cl)nc2)/C1=N/[N+](=O)[O-]`, which LC90 is on record?
A: Its LC90 is 8 ppm.

Q: Which LC90 does the source give for `CN1CCN(Cc2ccc(Cl)nc2)/C1=N/[N+](=O)[O-]` here?
A: The LC90 was 1.6 ppm.

Q: Which LC90 does the source give for `N#CC(C#N)=C1NCCN1Cc1ccc(Cl)nc1` here?
A: The LC90 was 40 ppm.

Q: Which LC90 does the source give for `C#CCN1CCN(Cc2ccc(Cl)nc2)/C1=N/[N+](=O)[O-]` here?
A: Its LC90 is 0.32 ppm.

Q: For `CC(C)N1CCN(Cc2ccc(Cl)nc2)/C1=N/[N+](=O)[O-]`, which LC90 is on record?
A: The LC90 was 40 ppm.

Q: Which LC90 does the source give for `C=CCN1CCN(Cc2ccc(Cl)nc2)/C1=N/[N+](=O)[O-]` here?
A: Its LC90 is 0.32 ppm.

Q: Which LC90 does the source give for `CC(=O)N1CCN(Cc2ccc(Cl)nc2)/C1=N/[N+](=O)[O-]` here?
A: Its LC90 is 0.32 ppm.

Q: For `N=C1NCCN1Cc1ccc(Cl)nc1` [DESNITROIMIDACLOPRID], which LC90 is on record?
A: Its LC90 is 200 ppm.

Q: With `O=[N+]([O-])/C=C1\NCCN1Cc1ccc(Cl)nc1` as the molecule, how does the LC90 read?
A: Its LC90 is 0.32 ppm.

Q: For `O=C1NCCN1Cc1ccc(Cl)nc1`, which LC90 is on record?
A: Its LC90 is 1000 ppm.

Q: With `N#CN1CCN(Cc2ccc(Cl)nc2)/C1=N/[N+](=O)[O-]` as the molecule, how does the LC90 read?
A: The LC90 was 0.32 ppm.

Tested on: not listed separately
Experiment: Toxicity in Rattus norvegicus (rat) […]
Format: organism-based
Conditions: in vivo

Q: Which LD50 does the source give for `O=[N+]([O-])NC1=NCCN1Cc1ccc(Cl)nc1` [IMIDACLOPRID] here?
A: The LD50 was > 5000 mg/kg.

Tested on: Nephotettix cincticeps
Experiment: Insecticidal activity against Nephotettix cincticeps (green rice leafhopper) infested on rice leaf assessed as increase in mortality at 1000 ppm after 5 days
Format: functional, organism-based
Conditions: not given

Q: Which Activity does the source give for `N#C/C=C1\NCCN1Cc1ccc(Cl)nc1` here?
A: Its Activity is “inactive”.

Q: With `CCOC(=O)/C=C1\NCCN1Cc1ccc(Cl)nc1` as the molecule, how does the Activity read?
A: Its Activity is “inactive”.

Tested on: not listed separately
Experiment: Toxicity in Leuciscus idus (golden orfe) after 96 hr
Format: organism-based
Conditions: in vivo

Q: Which LC50 at 96 h does the source give for `O=[N+]([O-])NC1=NCCN1Cc1ccc(Cl)nc1` [IMIDACLOPRID] here?
A: Its LC50 at 96 h is 237 µg/mL (≈ 927 µM).

Tested on: Lepidoptera
Experiment: Insecticidal activity against Lepidoptera
Format: functional, organism-based
Conditions: not given

Q: For `O=[N+]([O-])/N=C1\NCCN1Cc1ccc(Cl)nc1` [IMIDACLOPRID], which Activity is on record?
A: The Activity was “inactive”.

Tested on: not listed separately
Experiment: Toxicity in po dosed Rattus norvegicus (rat)
Format: organism-based
Conditions: in vivo

Q: With `O=[N+]([O-])NC1=NCCN1Cc1ccc(Cl)nc1` [IMIDACLOPRID] as the molecule, how does the LD50 read?
A: The LD50 was 450 mg/kg.

From ChEMBL document CHEMBL3046770, “1-(6-Chloronicotinyl)-2-nitroimino-imidazolidines and Related Compounds as Potential New Insecticides” (Biosci Biotechnol Biochem, 1992)
